We go through three compounds from patent publication US20110262561A1, “Protoilludance Norsesquiterpenoid Esters and Uses Thereof” (NATIONAL RESEARCH INSTITUTE OF CHINESE MEDICINE, priority 2010, published 2011).

One data set relates to HT-29. As to the kind of experiment: Alamar blue cytotoxicity assay on HT-29 cancer cells. The data set is classed as cell-based. The note with it: Homo sapiens, HT-29; alamar blue, 48 hours treatment. How it is done: (§1) The endothelial cells (human endothelial-like cells, Eahy926) and 4 cancer cell lines (MCF-7, H460, HT-29, and CEM) were derived from the American Type Culture Collection (ATCC) and were maintained in DMEM or RPMI medium (Life Technologies) supplemented with 2 mM L-glutamine and 10% heat-inactivated fetal bovine serum (FBS) (Life Technologies) under standard culture conditions. The cell viability and cell number were determined by the Trypan Blue dye-exclusion method.
(§2) The alamar blue (AB) assay (dye purchased from Biosource International, Nivelles, Belgium) was used to estimate cell viability in accordance with procedures previously described by Fatokun et al (Bone (2006) 39, 542-551). Briefly, cells were treated with various concentration of each of the test compounds (e.g., compounds of example 1.1) at 37° C. for 48 hours, and the medium in each well was then aspirated at the end of the treatment, 100 μL of fresh medium containing 10% v/v AB was then added to the control and the treated wells, respectively. Plates were then incubated at 37° C. for 6 hour prior to measuring the absorbance at 570 nm and at 600 nm wavelengths using a spectrophotometric plate reader (DYNEX Technologies, USA). Experimental data were normalized to control values. CH-205-A, K, L, O, and -P were effective on MCF-7 cells; CH-205-A, H, K, L, O, and -P were effective on H460 cells; CH-205-A and -P were effective on HT-29 cells and CH-205-A, H, N, and -O were effective on CEM cells.
For orientation: Alamar Blue is a resazurin reagent that responds to reducing activity.

A further data set has as its system H460. As to the kind of experiment: Alamar blue cytotoxicity assay on H460 cancer cells. It is filed as cell-based, human. Particulars: for IC50: Homo sapiens, NCI-H460, alamar blue, 48 hours treatment. How it is done: as §1, §2
The next data set concerns CEM. The experiment in a line: Alamar blue cytotoxicity assay on CEM cancer cells. The data set is classed as cell-based. Particulars: for IC50: Homo sapiens, CCRF-CEM, alamar blue, 48 hours treatment. As for the experimental part: as §1, §2
For a further data set, the system named is endothelial cells (ECs). The experiment in a line: In vitro antiangiogenesis on ECs (inhibition of endothelial cell growth). The data set is classed as cell-based. The note with it: Homo sapiens, ECs, read-out: In vitro antiangiogenesis IC50. As for the experimental part: as §1
(§3) Anti-angiogenic effects of CH-205 compounds were estimated by their inhibition on the growth of endothelial cells. The toxicity of CH-205 compounds to endothelial cells was estimated using MTT (3-(4,5-dimethy;thiazol-2-yl)-2,5-diphenyltetrazolium bromide, a tetrazole) assay. MTT assay is a standard colorimetric assay (an assay which measures changes in color) for measuring the activity of enzymes that reduce yellow MTT to formazan, giving a purple color. It is also used to determine cytotoxity of potential medicinal agents and other toxic materials, since those agents would result in cell toxicity and therefore metabolic dysfunction and therefore decreased performance in the assay. The cytotoxity concentrations of the CH-205 compounds measured in MTT test are all over 20 μM (Table 2), however, their effects on angiogenesis inhibition are in nM range, indicating the safety of these compounds (Table 3).

For the next data set, the system named is MCF-7. As to the kind of experiment: Alamar blue cytotoxicity assay on MCF-7 cancer cells. The data set is classed as cell-based. The note with it: for IC50: Homo sapiens, MCF7, alamar blue, 48 hours treatment. How it is done: as §1, §2
Data set [1] can be described thus: MTT cell viability of endothelial cells (ECs). It is filed as cell-based, human. Particulars: human, Eahy926 endothelial-like cells, column head prints none, read-out: Cell viability IC50 (cytotoxicity concentration on ECs). How it is done:
as §1, §3

For data set [2], the system named is endothelial cells (human endothelial-like cells, Eahy926). The experiment in a line: MTT cell viability of endothelial cells (ECs). The data set is classed as cell-based. How it is done: as §1, §3
The subject of data set [3] is H460 human lung cancer tumor xenograft. The note with it: for effect on body weight: mouse, in vivo.
Protocol: The established, transplantable, 5×10^6/200 μL H460 tumor cells were prepared in RPMI medium. The 200 μL of cell suspension was injected subcutaneously into right flank area of each mouse. The mice were randomized into vehicle control and drug treatment groups of four-six animals each when xenografts were palpable with a tumor size of 40 mm^3. Adminitration of the lead compounds or vehicle began on day 15 when the median tumor size was ranged from 75 to 80 mm^3. Tumor-bearing animals were randomized (five per group) prior to treatment. The candidate test drugs were intraperitoneal (IP) administered into with optimal dosage once every other day (48 hr apart) for 7 or 10 times. […] Solvent vehicle and cisplatin (5 mg/kg) were used to administrate, respectively, as io negative and positive controls. Two days after last administration of tested compounds, the animals were sacrificed. The tumor dimensions were measured every other day using a linear caliper and tumor volume is calculated using the equation V (mm^3)=a×b^2/2, where a is the largest diameter and b is the smallest diameter. Body weights are also recorded once weekly. Tumor is growth inhibition ratio (TGI) is calculated using the equation TGI=(1−(the mean treated tumor mass/mean control tumor mass))*100%.

Read-outs that look alike come from different tables or passages of the source.

Usually melting point stands for the temperature, or range, at which the solid turns liquid. As for `Cc1c(Cl)c(O)cc(O)c1C(=O)OCC1=C[C@@H]2CC(C)(C)C[C@@H]2[C@@]2(C)C[C@@H](O)[C@@]12O` [CH-205-H, (((2R,2aS,4aS,7aS,7bR)-2,2a,4a,5,6,7,7a,7b-octahydro-2,2a-dihydroxy-6,6,7 b-trimethyl-1H-cyclobuta[e]inden-3-yl)methyl 3-chloro-4,6-dihydroxy-2-methylbenzoate)], the melting point lay in the range of 148 to 149 °C. Moreover, in the data set on HT-29, the IC50 worked out at 7.1 µM. In addition, the IC50 with H460 is 5.5 µM. The compound further yielded an IC50 in the data set on CEM of 5.4 µM. In the data set on endothelial cells (ECs), the IC50 stood at 0.0013 µM. The compound also returned an IC50 in the data set with MCF-7 of 56.5 µM. The IC50 in data set [1] was determined as 29.3 µM. For the same compound, in data set [2], the “Cell viability (% of control) 1 μM” value is reported as 99.7 % of control, the “Cell viability (% of control) 10 μM” value is 128.7 % of control, the “Cell viability (% of control) 50 μM” value is reported as 34.9 % of control and the “Cell viability (% of control) 100 μM” value is 12.7 % of control. For the same compound, in data set [2], the “Cell viability (% of control) 250 μM” value is 8.4 % of control and the “Cell viability (% of control) 500 μM” value is 7.0 % of control.
Turning to `Cc1c(Cl)c(O)cc(O)c1C(=O)O[C@@H]1C[C@]2(C)C3CC(C)(C)CC3C=C(CO)[C@]12O` (stereo partly drawn) [CH-205-K, (2R,2aS,7bR)-2,2a,4a,5,6,7,7a,7b-octahydro-2a-hydroxy-3-(hydroxymethyl)-6,6,7b-trimethyl-1H-cyclobuta[e]inden-2-yl 3-chloro-4,6-dihydroxy-2-methylbenzoate], the IC50 in the data set with HT-29 is 56.7 µM; with H460 it was 4.5 µM; in the data set with CEM it was 28.8 µM; with endothelial cells (ECs), 0.0032 µM; in the data set with MCF-7, 4.8 µM; in [1], 21.4 µM. In addition, the “effective on H460 cells” value with H460 was “effective”. The “tumor volume after sacrifice” value in data set [3] (CH-205-K study, 4 mg/kg IP every other day, 7 times, control 1.743±0.129) is recorded as 1.364±0.14 cm^3; in data set [3] (CH-205-K study, 20 mg/kg IP every other day, 7 times, control 1.743±0.129), 1.283±0.077 cm^3; in data set [3] (CH-205-K study, 40 mg/kg IP every other day, 7 times, control 1.743±0.129), 1.109±0.119 cm^3; in data set [3] (CH-205-K study, 80 mg/kg IP every other day, 7 times, control 1.743±0.129), 0.867±0.086 cm^3. The “Tumor growth inhibition ratio (TGI)” value in data set [3] (CH-205-K study, 4 mg/kg IP, 7 times) turned out to be 21.74%; in [3] (CH-205-K study, 20 mg/kg IP, 7 times), 26.38%; in data set [3] (CH-205-K study, 40 mg/kg IP, 7 times), 36.38%; in [3] (CH-205-K study, 80 mg/kg IP, 7 times) it was 50.29%. The “effect on body weight” value in [3] is given as “no different effect on body weight”. In addition, in the data set on MCF-7, the “effective on MCF-7 cells” value is “effective”. Further, the “Cell viability (% of control) 1 μM” value in data set [2] is listed as 103.7 % of control. Besides, the “Cell viability (% of control) 10 μM” value in data set [2] is reported as 122.7 % of control. For the same compound, in data set [2], the “Cell viability (% of control) 50 μM” value is reported as 6.4 % of control. For the same compound, the “Cell viability (% of control) 100 μM” value in data set [2] is recorded as 6.4 % of control. In addition, the “Cell viability (% of control) 250 μM” value in data set [2] is listed as 7.0 % of control. Besides, in data set [2], the “Cell viability (% of control) 500 μM” value is listed as 8.8 % of control.
Turning to `COc1cc(O)c(C(=O)O[C@@H]2C[C@]3(C)C4CC(C)(C)CC4C=C(C=O)[C@]23O)c(C)c1Cl` (stereo partly drawn) [CH-205-O, (2R,2aS,7bR)-3-formyl-2,2a,4a,5,6,7,7a,7b-octahydro-2a-hydroxy-6,6,7b-trimethyl-1 H-cyclobuta[e]inden-2-yl 3-chloro-6-hydroxy-4-methoxy-2-methylbenzoate], the IC50 in the data set with HT-29 was determined as 42.1 µM; in the data set on H460, 4.5 µM; in the data set on CEM it was 5.1 µM; in the data set on endothelial cells (ECs), 0.0021 µM; in the data set on MCF-7 it was 1.7 µM; in data set [1], 13.2 µM. Besides, in the data set on H460, the “effective on H460 cells” value is “effective”. For the same compound, the “effective on CEM cells” value in the data set on CEM is “effective”. Besides, the “tumor volume after sacrifice” value in data set [3] (CH-205-O study, 4 mg/kg IP every other day, 10 times, solvent control 3.984±0.484) is listed as 1.475±0.155 cm^3; in [3] (CH-205-O study, 40 mg/kg IP every other day, 10 times, solvent control 3.984±0.484) it was 1.470±0.177 cm^3; in data set [3] (CH-205-O study, 80 mg/kg IP every other day, 10 times, solvent control 3.984±0.484) it was 1.645±0.206 cm^3. The “Tumor growth inhibition ratio (TGI)” value is given as 60.87% in [3] (CH-205-O study, 4 mg/kg IP, 10 times); 70.7% in data set [3] (CH-205-O study, 40 mg/kg IP, 10 times); 62.9% in data set [3] (CH-205-O study, 80 mg/kg IP, 10 times). The tumor regression entry in data set [3] (CH-205-O study, 4, 40 and 80 mg/kg each other day, after 10 injections) was “highly significant tumor regression”. Further, the “effect on body weight” value in data set [3] was “no different effect on body weight”. Further, the “effective on MCF-7 cells” value with MCF-7 is “effective”. Moreover, in data set [2], the “Cell viability (% of control) 1 μM” value is recorded as 98.5 % of control. In addition, in data set [2], the “Cell viability (% of control) 10 μM” value was 43.6 % of control. Moreover, the “Cell viability (% of control) 50 μM” value in data set [2] is 7.0 % of control. Also, the “Cell viability (% of control) 100 μM” value in data set [2] is listed as 6.5 % of control. Besides, the “Cell viability (% of control) 250 μM” value in data set [2] is 7.1 % of control. Further, the “Cell viability (% of control) 500 μM” value in data set [2] is 7.0 % of control.
